The values that follow come from US20090202499A1, “Human Telomerase Reverse Transcriptase Peptides” (priority 2006, published 2009).

As usually defined, the IC50 is the concentration at which inhibition is half-maximal.

“Also recorded” adds a separate entry of the source. Read-outs that look alike come from different tables or passages of the source.

One experiment has as its target B*0801 (Homo sapiens, UniProt P01889, A93T/A95T/D138N/E176V/E187T/K202T/Q94N/R180D/S35A/V36M/Y33D/Y91F). The experiment can be described thus: biochemical.
Another experiment addresses B*0702 (Homo sapiens, UniProt P01889). Nature of the experiment: competition solid-phase radioimmunoassay on purified HLA molecule. The experiment is classed as binding. The method, then:
(§1) Supertype analysis. Quantitative assays to measure the binding affinity of peptides to purified HLA B7-supertype molecules (B*0702, B*3501, B*5101, B*5301, B*5401) and B*0801 were based on the inhibition of binding of a radiolabeled standard peptide, and were performed as previously described (22, 35). Briefly, 1-10 nM of radiolabeled peptide was co-incubated at room temperature with 1 microM to 1 nM of purified MHC in the presence of 1-3 μM human beta2-microglobulin (Scripps Laboratories, San Diego, Calif.) and a cocktail of protease inhibitors. After a two-day incubation, binding of the radiolabeled peptide to the corresponding MHC class I molecule was determined by capturing MHC/peptide complexes on Greiner Lumitrac 600 microplates (Greiner Bio-one, Longwood, Fla.) coated with the W6/32 antibody, and measuring bound counts per minute (cpm) using the TopCount microscintillation counter (Packard Instrument Co.). […] Under the conditions utilized, where [label]<[MHC] and IC50≧[MHC], the measured IC50 values are reasonable approximations of the true Kd values.
Next, we assessed the actual binding avidity for HLA-B7 (HLA-B*0702). Two independent assays were used: binding stabilization assay on T2-B7 cells by flow cytometry (12) and a competitive solid-phase radioimmunoassay on immobilized purified HLA-B7 molecule (35).

For another experiment, the target named is B*5401 (Homo sapiens, UniProt P01889, A329T/C349S/D138N/D201E/E176V/E187T/E204Q/E69G/I76V/K202T/L119W/R155S/R180L/S121T/S35A/S48A/V127L/V306I/V36M/Y140L). The experiment can be described thus: HLA-B7 supertype binding assay. As for the experimental part: as §1
(§2) HLA molecules are highly polymorphic posing problems to the identification of peptides, which could be used to cover the totality of the human population. However, HLA alleles can be clustered into a relatively small number of groups termed supertypes (21). The HLA-B7 supertype includes ten alleles (22). Here, we decided to test the selected hTRT peptides for their ability to bind five out of ten members of the HLA-B7 supertype (B*3501, B*5101, B*5301, B*5401) and B*0801. The B*0801 allele shares binding features with B*0702, although is not officially part of the HLA-B7 supertype. This analysis had the purpose to further narrow the selection of putative HLA-B7 immunogens based on supertype binding (Table V).

The next experiment deals with B*3501 (Homo sapiens, UniProt P01889, A329T/A93T/A95T/C349S/D201E/D98Y/E176V/E187L/E204Q/E69T/I218V/K202T/L119I/Q94N/R155S/R180L/S121R/S35A/S48A/T118I/V127L/V306I/V36M/Y140S/Y91F). Nature of the experiment: HLA-B7 supertype binding assay. As for the experimental part: as §1, §2
Another experiment deals with B*5101 (Homo sapiens, UniProt P01889, A329T/A93T/A95T/C349S/D138N/D201E/D98Y/E187L/E204Q/E69T/G107R/I218V/K202T/L105A/L119W/N104I/Q94N/R106L/R155S/R180L/S101N/S121T/S35A/S48A/V306I/V36M/Y195H/Y91F). Nature of the experiment: HLA-B7 supertype binding assay. As for the experimental part:
as §1, §2

The target in a further experiment is B*5301 (Homo sapiens, UniProt P01889, A329T/A93T/A95T/C349S/D201E/D98Y/E176V/E187L/E204Q/E69T/G107R/I218V/K202T/L105A/L119I/N104I/Q94N/R106L/R155S/R180L/S101N/S121R/S35A/S48A/T118I/V127L/V306I/V36M/Y140S/Y91F). Nature of the experiment: HLA-B7 supertype binding assay. The method, then: as §1, §2
The test system of experiment [1] is RMA-B7 cells pulsed with the homologous hTRT peptide. The experiment can be described thus: peptide immunization of HLA-B7 Tg mice, 51Cr-release assay. In kind it is in vivo. Conditions: 100 micrograms peptide + HBV helper peptide in IFA, s.c. As for the experimental part:
FIG. 1. […] HLA-B7 Tg mice were vaccinated with 100 micrograms of individual hTRT peptide together with 120 micrograms of HBV helper peptide in IFA. Ten days after immunization, spleen lymphocytes were restimulated in vitro with peptide and fresh, irradiated syngeneic APC. Restimulations were performed on a weekly basis. A standard 4 hour ^51Cr-release assay was performed on day 5 after in vitro restimulation, using RMA-B7 cells pulsed with the homologous hTRT peptide as targets and an E:T ratio of 25:1. Results are expressed as the mean specific lysis plus or minus standard deviation of responder mice only, whose number is indicated in each panel. Tests were run in duplicate.
In vivo immunization procedures. Peptide immunization. HLA B7 transgenic mice (28) were injected s.c. at the base of the tail with 100 micro-grams of hTRT peptides along with 120 micro-grams of I-A^b MHC Class II helper peptide 128-140 of the hepatitis B virus core protein in incomplete Freunds' adjuvant as described previously (12). Long-term CTL lines were maintained in culture by weekly restimulation with irradiated, peptide-pulsed syngeneic spleen cells in RPMI-1640 medium containing 10% heat inactivated fetal bovine serum, 2 mM glutamine, 5×10^−5 M 2-Mercaptoethanol, 50 micro-grams/ml streptomycin, and 50 micro-grams/ml penicillin (complete medium) and supplemented with 40 IU/ml of recombinant human IL-2.
CTL assays. Both murine and human CTL were detected by the ^51Cr release assay performed as previously described (14). Briefly, HLA-B7^+ antigen presenting cells (RMA-B7 or T2-B7 cells) were labeled for 1 hr with 100 micro-Ci of Na2^51CrO4 (Perkin Elmer). Washed cells (5×10^3 per well) were mixed in 96-well plates in 100 micro-liters/well with each peptide (at 10 micro-grams/ml or lower concentration) and 100 micro-liters of the CTL effector cells (at various E:T ratio) in RPMI medium. The plates were incubated for 4-5 hrs at 37° C. (5% CO2). The supernatants were harvested and counted on a Wallac 1470 Wizard Gamma counter. The percent lysis was calculated as 100 (cpmexp−cpmspont)/(cpmmax−cpmspont).
In order to assign immunogenicity to each of the peptides and correlate this property with the binding characteristics and the scores of the predictive algorithms, we immunized HLA-B7 Tg mice (28). Ten to eleven days after immunization mice were sacrificed, the spleen harvested and splenocytes put in culture with LPS/Dextran activated APC, and tested in a 4 hour ^51Cr-release assay. As shown, only five out of seven peptides yielded a meaningful, specific CTL response even after a third cycle of in vitro restimulation (FIG. 1). All immunogenic peptides induced a response from the first in vitro restimulation and this response increased upon subsequent rounds of antigen restimulation. As noted the lysis of peptide-pulsed RMA-B7 target cells increased at each round of in vitro restimulation. No lysis occurred on RMA-B7 cells not pulsed with peptide. Thus, the in vivo results together with the actual measure of the avidity of HLA-B7 binding avidity distinguished two groups of 9mer hTRT peptides.

Consider `CSCC[C@H](NC(=O)[C@H](CC(N)=O)NC(=O)[C@H](CCCNC(=N)N)NC(=O)CNC(=O)[C@H](C)N)C(=O)N[C@@H](CCCNC(=N)N)C(=O)N[C@@H](CCCNC(=N)N)C(=O)N[C@@H](CCCCN)C(=O)N[C@@H](CC(C)C)C(=O)O` [p966], for which the IC50 on B*0801 is > 50 µM; at B*0702, > 50000 nM; on B*0702 (read-out: HLA class I binding capacity (IC50 nM) B*0702, Table V, purified MHC, radiolabeled standard peptide) it was > 50000 nM; at B*5401 it was 34.1 µM; on B*3501, > 50 µM; on B*5101, > 50 µM. Also, the IC50 at B*5301 was > 50 µM. Moreover, in experiment [1], the “immunogenicity in vivo, CTL response after peptide immunization (in words)” value is on record as “non-immunogenic; also recorded: poor immunogenicity; also recorded: repeated negative results”.
